Target: T1, human PDE5 (Homo sapiens, UniProt O76074)
T1 construct: from tissue; host or cells: platelets from fresh blood of human donors (lysate, 10,000 g supernatant)
Test: Inhibition of the type 5 phosphodiesterase (PDE5) activity, modified SPA test with platelet lysate
Type: biochemical
Conditions: PDE5 from human platelet lysate, 0.5 μM cGMP
Procedure, shortened: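 SPA-based cGMP hydrolysis, [3H]cGMP tracer in 0.5 μM cGMP, by sonicated human platelet lysate; motapizone (1 μM) and a PDE2 inhibitor (10 nM) block other PDEs. Reaction 15 min at 37 °C after 5 min preincubation, quenched with beads containing IBMX. IC50 from concentration-effect curves.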

SMILES | IC50
COc1ccc(OCC2CC2)c(-c2ncnc3c(C(=O)NC4CCN(C(=O)[C@H](C)O)CC4)c[nH]c23)c1 [Example 212, 4-(2-Cyclopropylmethoxy-5-methoxy-phenyl)-5H-pyrrolo[3,2-d]pyrimidine-7-carboxylic acid [1-((S)-2-hydroxy-propionyl)piperidin-4-yl]-amide] | 1.07 nM
O=C(NCC1CCN(C(=O)CO)CC1)c1c[nH]c2c(-c3c(OCC4CC4)ccc4c3OCO4)ncnc12 [Example 186, 4-(5-Cyclopropylmethoxy-benzo[1,3]dioxol-4-yl)-5H-pyrrolo[3,2-d]pyrimidine-7-carboxylic acid [1-(2-hydroxy-ethanoyl)-piperidin-4-ylmethyl]-amide] | 0.55 nM
COCCOc1cc(OC)ccc1-c1ncnc2c(C(=O)NC3CCN(C(=O)C4CC4)CC3)c[nH]c12 [Example 159, 4-[4-Methoxy-2-(2-methoxy-ethoxy)-phenyl]-5H-pyrrolo[3,2-d]pyrimidine-7-carboxylic acid (1-cyclopropanecarbonyl-piperidin-4-yl)-amide] | 6.03 nM
COc1cc(-c2ncnc3c(C(=O)N[C@@H]4CCCN(C(=O)[C@H](C)O)C4)c[nH]c23)c(OCC2CC2)cc1F [Example 230, 4-(2-Cyclopropylmethoxy-4-fluoro-5-methoxy-phenyl)-5H-pyrrolo[3,2-d]pyrimidine-7-carboxylic acid [(R)-1-((S)-2-hydroxy-propionyl)-piperidin-3-yl]-amide] | 0.24 nM
CC(=O)c1ccc(OCC2CC2)c(-c2ncnc3c(C(=O)NC4CCN(C(C)=O)CC4)c[nH]c23)c1 [Example 266, 4-(5-Acetyl-2-cyclopropylmethoxy-phenyl)-5H-pyrrolo[3,2-d]pyrimidine-7-carboxylic acid (1-acetyl-piperidin-4-yl)-amide] | 0.0794 nM
COCC(=O)N1CCC[C@@H](NC(=O)c2c[nH]c3c(-c4cc(OC)c(F)cc4OCC4CC4)ncnc23)C1 [Example 102, 4-(2-Cyclopropylmethoxy-4-fluoro-5-methoxy-phenyl)-5H-pyrrolo[3,2-d]pyrimidine-7-carboxylic acid [(R)-1-(2-methoxy-acetyl)piperidin-3-yl]-amide] | 0.115 nM
CCOC(=O)N[C@H]1CC[C@H](NC(=O)c2c[nH]c3c(-c4ccc(OC)cc4OCC4CC4)ncnc23)CC1 [Example 54, trans-(4-{[4-(2-Cyclopropylmethoxy-4-methoxy-phenyl)-5H-pyrrolo[3,2-d]pyrimidine-7-carbonyl]-amino}-cyclohexyl)-carbamic acid ethyl ester] | 0.417 nM
O=C(N[C@@H]1CCN(C(=O)C2(O)CC2)C1)c1c[nH]c2c(-c3c(OCC4CC4)ccc4c3OCO4)ncnc12 [Example 182, 4-(5-Cyclopropylmethoxy-benzo[1,3]dioxol-4-yl)-5H-pyrrolo[3,2-d]pyrimidine-7-carboxylic acid {(R)-1-[1-(1-hydroxy-cyclopropyl)-methanoyl]-pyrrolidin-3-yl}-amide] | 0.479 nM
CCC(=O)N1CCC(NC(=O)c2c[nH]c3c(-c4cc(F)c(OC)cc4OCC4CC4)ncnc23)CC1 [Example 110, 4-(2-Cyclopropylmethoxy-5-fluoro-4-methoxy-phenyl)-5H-pyrrolo[3,2-d]pyrimidine-7-carboxylic acid (1-propionyl-piperidin-4-yl)-amide] | 0.214 nM
CCCOc1ccc2c(c1-c1ncnc3c(C(=O)NC4CCN(C(=O)CC)CC4)c[nH]c13)OCO2 [Example 139, 4-(5-Propoxy-benzo[1,3]dioxol-4-yl)-5H-pyrrolo[3,2-d]pyrimidine-7-carboxylic acid (1-propionyl-piperidin-4-yl)-amide] | 0.204 nM
COc1ccc(-c2ncnc3c(C(=O)NC4CCN(C(=O)C5CC5)CC4)c[nH]c23)c(OCC2CC2)c1 [Example 60, 4-(2-Cyclopropylmethoxy-4-methoxy-phenyl)-5H-pyrrolo[3,2-d]pyrimidine-7-carboxylic acid [1-(1-cyclopropyl-methanoyl)-piperidin-4-yl]-amide] | 0.263 nM
CCOC(=O)N1CCC(NC(=O)c2c[nH]c3c(-c4ccccc4OCC4CC4)ncnc23)CC1 [Example 95, 4-{[4-(2-Cyclopropylmethoxy-phenyl)-5H-pyrrolo[3,2-d]pyrimidine-7-carbonyl]-amino}-piperidine-1-carboxylic acid ethyl ester] | 3.31 nM

Further lines, results first:

IC50 | SMILES
0.302 nM | CC(=O)N1CCC(CNC(=O)c2c[nH]c3c(-c4c(OCC5CC5)ccc5c4OCO5)ncnc23)CC1 [Example 24, 4-(5-Cyclopropylmethoxy-benzo[1,3]dioxol-4-yl)-5H-pyrrolo[3,2-d]pyrimidine-7-carboxylic acid (1-acetyl-piperidin-4-ylmethyl)-amide]
1.12 nM | CC(=O)N[C@H]1CC[C@H](NC(=O)c2c[nH]c3c(-c4cc(F)ccc4OCC4CC4)ncnc23)CC1 [Example 87, trans-4-(2-Cyclopropylmethoxy-5-fluoro-phenyl)-5H-pyrrolo[3,2-d]pyrimidine-7-carboxylic acid (4-acetylamino-cyclohexyl)-amide]
1.86 nM | COCC(=O)N1CCC(NC(=O)c2c[nH]c3c(-c4cc(OC)ccc4OCC4CC4)ncnc23)CC1 [Example 73, 4-(2-Cyclopropylmethoxy-5-methoxy-phenyl)-5H-pyrrolo[3,2-d]pyrimidine-7-carboxylic acid [1-(2-methoxy-acetyl)piperidin-4-yl]-amide]
57.5 nM | CCC(=O)N1CCC(NC(=O)c2c[nH]c3c(-c4cc(F)c(O)cc4OCC4CC4)ncnc23)CC1 [Example 278, 4-(2-Cyclopropylmethoxy-5-fluoro-4-hydroxy-phenyl)-5H-pyrrolo[3,2-d]pyrimidine-7-carboxylic acid (1-propionyl-piperidin-4-yl)-amide]
0.589 nM | COc1ccc(-c2ncnc3c(C(=O)N[C@H]4CC[C@H](NC(=O)CO)CC4)c[nH]c23)c(OCC2CC2)c1 [Example 199, trans-4-(2-Cyclopropylmethoxy-4-methoxy-phenyl)-5H-pyrrolo[3,2-d]pyrimidine-7-carboxylic acid [4-(2-hydroxy-acetylamino)-cyclohexyl]-amide]
0.891 nM | COc1cc(OCC2CC2)c(-c2ncnc3c(C(=O)N[C@H]4CC[C@H](NC(C)=O)CC4)c[nH]c23)cc1F [Example 106, trans-4-(2-Cyclopropylmethoxy-5-fluoro-4-methoxy-phenyl)-5H-pyrrolo[3,2-d]pyrimidine-7-carboxylic acid (4-acetylamino-cyclohexyl)-amide]
1.74 nM | COCCOc1ccc2c(c1-c1ncnc3c(C(=O)NC4CCN(C(=O)C5CC5)CC4)c[nH]c13)OCO2 [Example 169, 4-[5-(2-Methoxy-ethoxy)-benzo[1,3]dioxol-4-yl]-5H-pyrrolo[3,2-d]pyrimidine-7-carboxylic acid (1-cyclopropanecarbonyl-piperidin-4-yl)-amide]
0.617 nM | COc1cc(OCC2CC2)c(-c2ncnc3c(C(=O)NC4CCN(C(=O)[C@H](C)O)CC4)c[nH]c23)cc1F [Example 237, 4-(2-Cyclopropylmethoxy-5-fluoro-4-methoxy-phenyl)-5H-pyrrolo[3,2-d]pyrimidine-7-carboxylic acid [1-((S)-2-hydroxy-propanoyl)piperidin-4-yl]-amide]
3.72 nM | CCOc1ccc2c(c1-c1ncnc3c(C(=O)N[C@@H]4CCN(C(=O)CC)C4)c[nH]c13)OCO2 [Example 136, 4-(5-Ethoxy-benzo[1,3]dioxol-4-yl)-5H-pyrrolo[3,2-d]pyrimidine-7-carboxylic acid ((R)-1-propionyl-pyrrolidin-3-yl)-amide]
2.24 nM | CCC(=O)N1CCC[C@H](NC(=O)c2c[nH]c3c(-c4cc(F)c(OC)cc4OCC4CC4)ncnc23)C1 [Example 114, 4-(2-Cyclopropylmethoxy-5-fluoro-4-methoxy-phenyl)-5H-pyrrolo[3,2-d]pyrimidine-7-carboxylic acid ((S)-1-propionyl-piperidin-3-yl)-amide]
1.15 nM | Cc1ccc(OCC2CC2)c(-c2ncnc3c(C(=O)N[C@H]4CC[C@H](NC(=O)C5(O)CC5)CC4)c[nH]c23)c1 [Example 245, trans-4-(2-Cyclopropylmethoxy-5-methyl-phenyl)-5H-pyrrolo[3,2-d]pyrimidine-7-carboxylic acid {4-[(1-hydroxy-cyclopropanecarbonyl)-amino]-cyclohexyl}-amide]
1.38 nM | CCOC(=O)N[C@H]1CC[C@H](NC(=O)c2c[nH]c3c(-c4cc(C)ccc4OCC4CC4)ncnc23)CC1 [Example 122, trans-(4-{[4-(2-Cyclopropylmethoxy-5-methyl-phenyl)-5H-pyrrolo[3,2-d]pyrimidine-7-carbonyl]-amino}-cyclohexyl)-carbamic acid ethyl ester]
0.692 nM | COc1cc(-c2ncnc3c(C(=O)N[C@@H]4CCN(C(=O)CO)C4)c[nH]c23)c(OCC2CC2)cc1F [Example 231, 4-(2-Cyclopropylmethoxy-4-fluoro-5-methoxy-phenyl)-5H-pyrrolo[3,2-d]pyrimidine-7-carboxylic acid [(R)-1-(2-hydroxy-acetyl)-pyrrolidin-3-yl]amide]
0.112 nM | O=C(CO)N[C@H]1CC[C@H](NC(=O)c2c[nH]c3c(-c4c(OCC5CC5)ccc5c4OCO5)ncnc23)CC1 [Example 172]
0.309 nM | CCOC(=O)N1CCC(NC(=O)c2c[nH]c3c(-c4ccc(OC)cc4OCC4CC4)ncnc23)CC1 [Example 62, 4-({1-[4-(2-Cyclopropylmethoxy-4-methoxy-phenyl)-5H-pyrrolo[3,2-d]pyrimidin-7-yl]-methanoyl}-amino)-piperidine-1-carboxylic acid ethyl ester]
1.55 nM | COCC(=O)N[C@H]1CC[C@H](NC(=O)c2c[nH]c3c(-c4ccc(F)cc4OCC4CC4)ncnc23)CC1 [Example 79, trans-4-(2-Cyclopropylmethoxy-4-fluoro-phenyl)-5H-pyrrolo[3,2-d]pyrimidine-7-carboxylic acid [4-(2-methoxy-acetylamino)-cyclohexyl]-amide]
